Measured values taken from patent US5196449A, “Methods and pharmaceutical compositions for the treatment of ophthalmic diseases” (IdB Holding SpA, priority 1989, dated 1993).

What was measured:
[1] = system: vessels of the ciliary body (haemato-ophthalmic barrier); test: Permeability of the haemato-ophthalmic barrier induced by paracentesis in the rabbit (Evans Blue dye method); format: in vivo, New Zealand albino rabbit; settings: for Amount of dye coming out of the vessels of the ciliary body (in words): single dose of 100 or 200 mg/kg, two or four hours after administration
Protocol: (§1) The effect on the permeability of the haemato-ophthalmic barrier was measured by inducing an increase in the permeability of the vessels of the ciliary body, either by paracentesis or by instillation of sodium hydroxide into the conjunctival sac. The reduction in permeability induced by oral administration of the products under examination was then measured.
The experiment was carried out on 80 New Zealand albino rabbits, average body weight 2.8 kg, divided into eight groups each of ten animals.
The vasal permeability was measured by the dye method: 1 ml of Evans Blue in a concentration of 0.5% was injected into the marginal vein of the auricle.
After 10 minutes the left eye was subjected to paracentesis and after 12 minutes a sample of aqueous humour was taken. The quantity of Evans Blue in the sampled aqueous humour was used to assess the permeability of the haemato-ophthalmic barrier. Immediately afterwards, compounds I and II were administered in doses of 100 or 200 mg/kg by stomach probe.
Two or four hours after administration, paracentesis was carried out on the right eye and after 12 minutes a sample of aqueous humour was taken.
The quantity of Evans Blue in the aqueous humour was evaluated by spectrophotometer reading at 623 nm. […]

[2] = Acute toxicity in rats, stomach probe; format: in vivo; settings: for Toxic symptoms or death (in words): doses up to 6 g/kg; for LD50: rat, in vivo, po
Protocol: (§2) This was tested on mice and rats after administration by stomach probe. […] The LD 50 must therefore be above 6 g/kg.

[3] = Acute toxicity in mice, stomach probe; format: in vivo; settings: for Toxic symptoms or death (in words): doses up to 6 g/kg; for LD50: mouse, in vivo, po
Protocol: as §2

[4] = system: conjunctiva, cornea, iris, crystalline lens, vitreous humour and retina; test: Ocular tolerability after oral administration; format: in vivo, New Zealand rabbit; settings: single (200 mg/kg) or repeated (100 mg/kg, 7 days) oral administration
Protocol: The ocular tolerability of compounds I and II was measured in New Zealand rabbits on the anterior segment (conjunctiva, cornea, iris and crystalline lens) and on the posterior segment (vitreous humour and retina) after oral administration, local application and intra-ocular injection.
Both products were administered by stomach probe, either in a single dose of 200 mg/kg or in repeated doses of 100 mg/kg for 7 days. Surveys were made before and 1, 2 and 4 hours after acute administration, on the third and seventh days after repeated administration and 5 days after suspension of treatment.

[5] = system: vessels of the ciliary body (haemato-ophthalmic barrier); test: Permeability of the haemato-ophthalmic barrier induced by NaOH in the rabbit (Evans Blue); format: in vivo, New Zealand rabbit; settings: seven days; for Percentage variation of Evans Blue: vs controls; for Reduction in permeability, significance (in words): 100 mg/kg os; for Permeability of the vessels of the ciliary body caused by the irritating agent (in words): 50 or 100 mg/kg os
Protocol: as §1
The experiment was carried out on 50 New Zealand rabbits, average body weight 2.2 kg. The substance was administered once a day for seven days in doses of 50 or 100 mg/kg. A control group was treated with tap water.
Thirty minutes after the last administration, 1 ml of a 0.5% solution of Evans Blue was administered in the marginal vein of the ear. After 30 minutes, inflammation of the eye tissue was produced by instilling two drops of 0.25N sodium hydroxide in the conjunctival sac. Two hours later the animal was anesthesized and a sample of aqueous humour was taken in order to measure the proportion of dye.

[6] = system: vessels of the ciliary body (haemato-ophthalmic barrier); test: Permeability of the haemato-ophthalmic barrier induced by histamine (corneal lens method, Evans Blue); format: in vivo, New Zealand rabbit; settings: for Permeability of the vessels of the ciliary body caused by histamine (in words) / Effects, significance (in words): 100 mg/kg by gavage; for Effects, significance (in words): after 2 and 4 hours; for Evans Blue in aqueous humour, m ± sd / Percentage variation of Evans Blue relative to time 0: 100 mg/kg os
Protocol: The experiment was carried out on […] New Zealand rabbits, average body weight 2.5 kg, divided into three groups of ten animals each.
The vasal permeability was measured by the dye method: 1 ml of Evans Blue in a concentration of 0.5% was injected into the marginal vein of the ear. After 10 min a soft corneal lens embedded in a 2% solution of histamine hydrochloride was applied for 30 min to the left eye.
The left eye was subjected to paracentesis and a sample of aqueous humour was taken.
Immediately after, the substances were given by gavage at the dose of 100 mg/kg. Two or four hours after administration a lens embedded with histamine as described before was applied for 30 min on the right eye. Paracentesis was carried out and aqueous humor was taken.
The quantity of Evans Blue in the aqueous humor was evaluated as described in 1(i).

[7] = 100 mg/kg os, 1 administration, 2 hours
[8] = 100 mg/kg os, 1 administration, 4 hours
[9] = 100 mg/kg os, 7 administrations, 24 hours after last
[10] = 200 mg/kg os, 1 administration, 2 hours
[11] = 200 mg/kg os, 1 administration, 4 hours

In the case of `Oc1ccc(-c2[o+]c3cc(O)cc(O)c3cc2O)cc1` [Compound I, pelargonidin], the “Evans Blue in aqueous humour, m ± s.d.” value [1, 7] is reported as 34.9 ± 8.5 µg/mL, the “Percentage variation of Evans Blue relative to time 0” value [1, 7] is reported as -15.4% and the “Evans Blue in aqueous humour, m ± s.d.” value [1, 8] is reported as 46.9 ± 17.5 µg/mL. For the same compound, the “Percentage variation of Evans Blue relative to time 0” value [1, 8] was -15.5%, the “Evans Blue in aqueous humour, m ± s.d.” value [1, 9] was 44.2 ± 11.7 µg/mL and the “Percentage variation of Evans Blue relative to time 0” value [1, 9] was -22.4%. For the same compound, the “Evans Blue in aqueous humour, m ± s.d.” value [1, 10] was 42.2 ± 15.0 µg/mL, the “Percentage variation of Evans Blue relative to time 0” value [1, 10] was -16.4% and the “Evans Blue in aqueous humour, m ± s.d.” value [1, 11] was 44.8 ± 20.2 µg/mL. The “Percentage variation of Evans Blue relative to time 0” value [1, 11] was -15.6%, the “Amount of dye coming out of the vessels of the ciliary body (in words)” value [1] was “reduced in a statistically significant manner” and the “Toxic symptoms or death (in words)” value [2] was “did not cause toxic symptoms or death”. The LD50 [2] was greater than 6000 mg/kg, the “Toxic symptoms or death (in words)” value [3] was “did not cause toxic symptoms or death” and the LD50 [3] was greater than 6000 mg/kg. For the same compound, the “Modifications in ocular structures (in words)” value [4] was “did not induce modifications in the conjunctive, cornea, iris, crystalline lens, vitrous humour or retina”, the “Evans Blue, m ± s.e.” value ([5]; 50 mg/kg/day os) was 5.8 ± 0.8 µg/mL and the “Percentage variation of Evans Blue” value ([5]; 50 mg/kg/day os) was -2%. For the same compound, the “Reduction in permeability, significance (in words)” value [5] was “statistically significant compared with the controls”, the “Evans Blue, m ± s.e.” value ([5]; 100 mg/kg/day os) was 3.5 ± 0.6 µg/mL and the “Percentage variation of Evans Blue” value ([5]; 100 mg/kg/day os) was -40%. For the same compound, the “Permeability of the vessels of the ciliary body caused by the irritating agent (in words)” value [5] was “dose-dependent reduction in the permeability of the vessels of the ciliary body”, the “Permeability of the vessels of the ciliary body caused by histamine (in words)” value [6] was “reduced permeability of the vessels of the ciliary body caused by histamine” and the “Effects, significance (in words)” value [6] was “statistically significant compared with the basal values”. For the same compound, the “Evans Blue in aqueous humour, m ± sd” value ([6]; 2 hours) was 86.2 ± 6.1 µg/mL, the “Percentage variation of Evans Blue relative to time 0” value ([6]; 2 hours) was -19.0% and the “Evans Blue in aqueous humour, m ± sd” value ([6]; 4 hours) was 75.9 ± 10.3 µg/mL. For the same compound, the “Percentage variation of Evans Blue relative to time 0” value ([6]; 4 hours) was -29.9%.
With `Oc1cc(O)c2cc(O)c(-c3cc(O)c(O)c(O)c3)[o+]c2c1` [Compound II, delphinidin] the “Evans Blue in aqueous humour, m ± s.d.” value [1, 7] was 41.5 ± 7.9 µg/mL, the “Percentage variation of Evans Blue relative to time 0” value [1, 7] was -14.1% and the “Evans Blue in aqueous humour, m ± s.d.” value [1, 8] was 45.6 ± 9.7 µg/mL. For the same compound, the “Percentage variation of Evans Blue relative to time 0” value [1, 8] was -14.9%, the “Evans Blue in aqueous humour, m ± s.d.” value [1, 9] was 42.5 ± 13.3 µg/mL and the “Percentage variation of Evans Blue relative to time 0” value [1, 9] was -20.8%. The “Evans Blue in aqueous humour, m ± s.d.” value [1, 10] was 45.1 ± 10.3 µg/mL, the “Percentage variation of Evans Blue relative to time 0” value [1, 10] was -15.1% and the “Evans Blue in aqueous humour, m ± s.d.” value [1, 11] was 45.9 ± 12.2 µg/mL. The “Percentage variation of Evans Blue relative to time 0” value [1, 11] was -15.1%, the “Amount of dye coming out of the vessels of the ciliary body (in words)” value [1] was “reduced in a statistically significant manner” and the “Toxic symptoms or death (in words)” value [2] was “did not cause toxic symptoms or death”. For the same compound, the LD50 [2] was greater than 6000 mg/kg, the “Toxic symptoms or death (in words)” value [3] was “did not cause toxic symptoms or death” and the LD50 [3] was greater than 6000 mg/kg. For the same compound, the “Modifications in ocular structures (in words)” value [4] was “did not induce modifications in the conjunctive, cornea, iris, crystalline lens, vitrous humour or retina”, the “Evans Blue, m ± s.e.” value ([5]; 50 mg/kg/day os) was 5.1 ± 0.7 µg/mL and the “Percentage variation of Evans Blue” value ([5]; 50 mg/kg/day os) was -14%. For the same compound, the “Reduction in permeability, significance (in words)” value [5] was “statistically significant compared with the controls”, the “Evans Blue, m ± s.e.” value ([5]; 100 mg/kg/day os) was 3.2 ± 0.4 µg/mL and the “Percentage variation of Evans Blue” value ([5]; 100 mg/kg/day os) was -45%. For the same compound, the “Permeability of the vessels of the ciliary body caused by the irritating agent (in words)” value [5] was “dose-dependent reduction in the permeability of the vessels of the ciliary body”, the “Permeability of the vessels of the ciliary body caused by histamine (in words)” value [6] was “reduced permeability of the vessels of the ciliary body caused by histamine” and the “Effects, significance (in words)” value [6] was “statistically significant compared with the basal values”. For the same compound, the “Evans Blue in aqueous humour, m ± sd” value ([6]; 2 hours) was 82.0 ± 7.0 µg/mL, the “Percentage variation of Evans Blue relative to time 0” value ([6]; 2 hours) was -25.3% and the “Evans Blue in aqueous humour, m ± sd” value ([6]; 4 hours) was 68.8 ± 8.7 µg/mL. The “Percentage variation of Evans Blue relative to time 0” value ([6]; 4 hours) was -31.7%.
